Counter-ions that a name gives are not always drawn.
Biological target: NS5B polymerase (Hepatitis C virus genotype 1b, UniProt P26663)
Experiment: biochemical
Settings: NS5B polymerase inhibition; 20 nM enzyme, 75 min at 28° C.
Experimental: Compounds were tested for HCV polymerase inhibition. Assays were performed in a 96-well streptavidin-coated FlashPlate using 20 nM enzyme, 0.5μ Ci of [α-^33P]GTP, 0.6 μM GTP, and 250 nM 5′biotinylated oligo (rG13)/poly rC in 20 mM Tris-HCl, pH 7.5, 5 mM MgCl2, 5 mM dithiothreitol, 0.1 g/L bovine serum albumin, and 100 U/mL RNAse inhibitor. The reaction was stopped by aspiration after 75 min at 28° C. and the plate was washed several times. After washing and drying the plate, incorporated radioactivity was counted using a Microbeta scintillation counter. IC50 values were calculated relative to the uninhibited control and inhibition data were fitted to a 4-parameter IC50 equation.

Sequence of NS5B polymerase (P26663 2420-3010): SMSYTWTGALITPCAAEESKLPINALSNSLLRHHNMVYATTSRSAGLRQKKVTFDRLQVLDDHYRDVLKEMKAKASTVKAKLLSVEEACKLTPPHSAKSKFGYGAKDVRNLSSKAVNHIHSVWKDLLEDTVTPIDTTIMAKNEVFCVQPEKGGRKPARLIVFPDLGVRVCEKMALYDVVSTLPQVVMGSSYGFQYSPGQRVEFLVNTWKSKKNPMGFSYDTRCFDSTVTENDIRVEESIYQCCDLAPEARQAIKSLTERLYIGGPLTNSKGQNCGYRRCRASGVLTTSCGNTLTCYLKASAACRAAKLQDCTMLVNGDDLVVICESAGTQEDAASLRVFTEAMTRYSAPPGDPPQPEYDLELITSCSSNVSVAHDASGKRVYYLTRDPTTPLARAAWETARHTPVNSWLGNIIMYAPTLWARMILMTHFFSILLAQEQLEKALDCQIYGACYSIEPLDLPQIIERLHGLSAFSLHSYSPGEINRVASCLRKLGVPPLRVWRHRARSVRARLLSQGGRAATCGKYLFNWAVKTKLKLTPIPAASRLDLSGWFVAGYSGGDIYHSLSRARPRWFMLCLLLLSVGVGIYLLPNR

SMILES	IC50 [nM]
CC(C)CCN1C(=O)C(C2=NS(=O)(=O)c3cc(NS(C)(=O)=O)ccc3N2)=C(O)[C@H]2CCC[C@H]21 (relative stereo) [Example 17, cis-N-{3-[2-(3-Methylbutyl)-5-hydroxy-3-oxo-2-aza-bicyclo[4.3.0]non-4-en-4-yl]-1,1-dioxo-1,4-dihydro-1λ^6-benzo[1,2,4]thiadiazin-7-yl}-methanesulfonamide]	< 20
CC(C)(C)CCN1C(=O)C(C2=NS(=O)(=O)c3cc(NS(C)(=O)=O)ccc3N2)=C(O)[C@H]2CCC[C@H]21 (relative stereo) [Example 18, cis-N-{3-[2-(3,3-Dimethylbutyl)-5-hydroxy-3-oxo-2-aza-bicyclo[4.3.0]non-4-en-4-yl]-1,1-dioxo-1,4-dihydro-1λ^6-benzo[1,2,4]thiadiazin-7-yl}-methanesulfonamide]	< 20
CS(=O)(=O)Nc1ccc2c(c1)S(=O)(=O)N=C(C1=C(O)[C@@H]3CCC[C@@H]3N(CCC3CC3)C1=O)N2 (relative stereo) [Example 19, cis-N-{3-[2-Cyclopropylethyl-5-hydroxy-3-oxo-2-aza-bicyclo[4.3.0]non-4-en-4-yl]-1,1-dioxo-1,4-dihydro-1λ^6-benzo[1,2,4]thiadiazin-7-yl}-methanesulfonamide]	20 to 100
NCCS(=O)(=O)Nc1ccc2c(c1)S(=O)(=O)N=C(C1=C(O)[C@@H]3CCC[C@@H]3N(Cc3ccc(F)cc3)C1=O)N2 (relative stereo) [Example 24, cis-2-Amino-ethanesulfonic acid {3-[1-(4-fluoro-benzyl)-4-hydroxy-2-oxo-2,4-a,5,6,7,7a-hexahydro-1H-[1]pyrindin-3-yl]-1,1-dioxo-1,4-dihydro-1λ^6 benzo[1,2,4]thiadiazin-7-yl}-amide]	20 to 100
CS(=O)(=O)Nc1ccc2c(c1)S(=O)(=O)C=C(C1=C(O)[C@@H]3CCC[C@@H]3N(Cc3ccc(F)cc3)C1=O)N2 (relative stereo) [Example 25, cis-N-{3-[1-(4-Fluoro-benzyl)-4-hydroxy-2-oxo-2,4-a,5,6,7,7a-hexahydro-1H-[1]pyrindin-3-yl]-1,1-dioxo-1,4-dihydro-1λ^6-benzo[1,4]thiazin-7-yl}-methanesulfonamide]	20 to 100
CS(=O)(=O)Nc1ccc2c(c1)S(=O)(=O)N=C(C1=C(O)[C@@H]3CC=CC[C@@H]3N(Cc3ccc(F)cc3)C1=O)N2 (relative stereo) [Example 37, cis-N-{3-[1-(4-Fluoro-benzyl)-4-hydroxy-2-oxo-1,2,4a,5,8,8a-hexahydro-quinolin-3-yl]-1,1-dioxo-1,4-dihydro-1λ^6 benzo[1,2,4]thiadiazin-7-yl}-methanesulfonamide]	20 to 100
CN(C)N1C(=O)C(C2=NS(=O)(=O)c3cc(NS(C)(=O)=O)ccc3N2)=C(O)[C@@H]2CCC[C@@H]21 (relative stereo) [Example 38, cis-N-[3-(1-Dimethylamino-4-hydroxy-2-oxo-2,4-a,5,6,7,7a-hexahydro-1H-[1]pyrindin-3-yl)-1,1-dioxo-1,4-dihydro-1λ^6-benzo[1,2,4]thiadiazin-7-yl]-methanesulfonamide hydrochloride]	1000 to 100000
CS(=O)(=O)Nc1ccc2c(c1)S(=O)(=O)N=C(C1=C(O)[C@@H]3CCC[C@@H]3N(NC3CCC3)C1=O)N2 (relative stereo) [Example 41, cis-N-[3-(1-Cyclobutylamino-4-hydroxy-2-oxo-2,4-a,5,6,7,7a-hexahydro-1H-[1]pyrindin-3-yl)-1,1-dioxo-1,4-dihydro-1λ^6-benzo[1,2,4]thiadiazin-7-yl]-methanesulfonamide trifluoroacetic acid salt]	20 to 100
CS(=O)(=O)Nc1ccc2c(c1)S(=O)(=O)N=C(C1=C(O)[C@@H]3CCC[C@@H]3N(C3CCCCC3)C1=O)N2 (relative stereo) [Example 43, cis-N-[3-(1-Cyclohexyl-4-hydroxy-2-oxo-2,4-a,5,6,7,7a-hexahydro-1H-[1]pyrindin-3-yl)-1,1-dioxo-1,4-dihydro-1λ^6-benzo[1,2,4]thiadiazin-7-yl]-methanesulfonamide]	100 to 1000
CS(=O)(=O)Nc1ccc2c(c1)S(=O)(=O)N=C(C1=C(O)[C@@H]3CCC[C@@H]3N(CC3CCC3)C1=O)N2 (relative stereo) [Example 47, cis-N-[3-(1-Cyclobutylmethyl-4-hydroxy-2-oxo-2,4-a,5,6,7,7a-hexahydro-1H-[1]pyrindin-3-yl)-1,1-dioxo-1,4-dihydro-1λ^6-benzo[1,2,4]thiadiazin-7-yl]-methanesulfonamide]	20 to 100
CS(=O)(=O)Nc1ccc2c(c1)S(=O)(=O)N=C(C1=C(O)[C@@H]3CCC[C@@H]3N(c3ccccc3)C1=O)N2 (relative stereo) [Example 48, cis-N-[3-(4-Hydroxy-2-oxo-1-phenyl-2,4-a,5,6,7,7a-hexahydro-1H-[1]pyrindin-3-yl)-1,1-dioxo-1,4-dihydro-1λ^6-benzo[1,2,4]thiadiazin-7-yl]-methanesulfonamide]	1000 to 100000
CN1C(=O)C(C2=NS(=O)(=O)c3cc(NS(C)(=O)=O)ccc3N2)=C(O)[C@@H]2CCC[C@@H]21 (relative stereo) [Example 53, cis-N-[3-(4-Hydroxy-1-methyl-2-oxo-2,4a,5,6,7,7a-hexahydro-1H-[1]pyrindin-3-yl)-1,1-dioxo-1,4-dihydro-1λ^6-benzo[1,2,4]thiadiazin-7-yl]-methanesulfonamide]	1000 to 100000
CCN1C(=O)C(C2=NS(=O)(=O)c3cc(NS(C)(=O)=O)ccc3N2)=C(O)[C@@H]2CCC[C@@H]21 (relative stereo) [Example 54, cis-N-[3-(1-Ethyl-4-hydroxy-2-oxo-2,4a,5,6,7,7a-hexahydro-1H-[1]pyrindin-3-yl)-1,1-dioxo-1,4-dihydro-1λ^6-benzo[1,2,4]thiadiazin-7-yl]-methanesulfonamide]	100 to 1000
CC(C)N1C(=O)C(C2=NS(=O)(=O)c3cc(NS(C)(=O)=O)ccc3N2)=C(O)[C@@H]2CCC[C@@H]21 (relative stereo) [Example 55, cis-N-[3-(4-Hydroxy-1-isopropyl-2-oxo-2,4a,5,6,7,7a-hexahydro-1H-[1]pyrindin-3-yl)-1,1-dioxo-1,4-dihydro-1λ^6-benzo[1,2,4]thiadiazin-7-yl]-methanesulfonamide]	100 to 1000
CS(=O)(=O)Nc1ccc2c(c1)S(=O)(=O)N=C(C1=C(O)[C@@H]3CCC[C@@H]3N(Cc3ccc(Cl)cc3)C1=O)N2 (relative stereo) [Example 56, cis-N-{3-[1-(4-Chloro-benzyl)-4-hydroxy-2-oxo-2,4a,5,6,7,7a-hexahydro-1H-[1]pyrindin-3-yl]-1,1-dioxo-1,4-dihydro-1λ^6-benzo[1,2,4]thiadiazin-7-yl}-methanesulfonamide]	< 20
CS(=O)(=O)Nc1ccc2c(c1)S(=O)(=O)C=C(C1=C(O)[C@@H]3CCCCC[C@@H]3N(Cc3ccc(F)cc3)C1=O)N2 (relative stereo) [Example 57, cis-N-{3-[1-(4-Fluoro-benzyl)-4-hydroxy-2-oxo-2,4a,5,6,7,8,9,9a-octahydro-1H-cyclohepta[b]pyridin-3-yl]-1,1-dioxo-1,4-dihydro-1λ^6-benzo[1,4]thiazin-7-yl}-methanesulfonamide]	< 20
CS(=O)(=O)Nc1ccc2c(c1)S(=O)(=O)N=C(C1=C(O)C3CCCCCC3N(Cc3ccc(F)cc3)C1=O)N2 (centres unmarked) [Example 2, N-{3-[1-(4-Fluoro-benzyl)-4-hydroxy-2-oxo-2,4-a,5,6,7,8,9,9a-octahydro-1H-cyclohepta[b]pyridin-3-yl]-1,1-dioxo-1,4-dihydro-1λ^6-benzo[1,2,4]thiadiazin-7-yl}-methanesulfonamide]	20 to 100

— patent US20090111798A1, “5,6-DIHYDRO-1H-PYRIDIN-2-ONE COMPOUNDS” (priority 2006, published 2009)
